In patent US11191758B2, “Use of selective serotonin 5-HT1A receptor agonists for treating side-effects of VMAT inhibitors” (Neurolixis, priority 2017, dated 2021):
“Also recorded” adds a separate entry of the source. Read-outs that look alike come from different tables or passages of the source.

How the values were obtained:
[1] = test system: patients with chorea associated with HD; conditions: cited from earlier work
[2] = target: T1, serotonin 5-HT1A receptors (Rattus norvegicus, UniProt P19327); assay: [35S]GTPγS binding G-protein activation assay, rat hippocampal membranes; format: biochemical; conditions: for Emax: read-out: Emax, stimulation of [35S]GTPγS binding relative to 5-HT
T1 construct: Hippocampi were dissected and homogenized in 20 volumes of buffer A; from tissue; host or cells: rat hippocampus membranes (male Sprague-Dawley)
T1 sequence (P19327 1-422): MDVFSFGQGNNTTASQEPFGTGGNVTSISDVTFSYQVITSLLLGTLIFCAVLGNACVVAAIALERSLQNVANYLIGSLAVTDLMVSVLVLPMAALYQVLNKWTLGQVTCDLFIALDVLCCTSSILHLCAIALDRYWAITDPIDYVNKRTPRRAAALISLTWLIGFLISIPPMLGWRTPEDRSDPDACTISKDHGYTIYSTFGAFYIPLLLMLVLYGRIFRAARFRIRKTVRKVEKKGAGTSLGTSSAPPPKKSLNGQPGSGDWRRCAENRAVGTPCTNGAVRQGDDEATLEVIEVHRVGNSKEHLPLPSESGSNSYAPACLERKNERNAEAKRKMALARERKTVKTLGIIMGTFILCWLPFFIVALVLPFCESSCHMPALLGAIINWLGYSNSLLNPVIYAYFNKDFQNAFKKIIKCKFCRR
Experimental: Agonist efficacy for stimulation of G-protein activation at serotonin 5-HT1A receptors can be determined by [^35S]GTPγS binding assays as follows. Experiments employed brains of male Sprague-Dawley rats which were stored at −70° C. before use in binding assays. Experiments were carried out in triplicate and repeated at least three times. Frozen brains were thawed in ice-cold buffer A (50 mM Hepes containing 150 mM NaCl, 0.2 mM EDTA, 1 mM GTP, 10 μM pargyline; pH 7.4, 23° C.). Hippocampi were dissected and homogenized in 20 volumes of buffer A before incubation at 37° C. for 10 min to dissociate endogenous neurotransmitters from receptors. The homogenate was centrifuged at 20 000 g for 15 min, at 4° C. The pellet was re-suspended in buffer A and recentrifuged as before. The pellet was then re-suspended in buffer B (50 mM Hepes containing 150 mM NaCl, 0.2 mM EDTA, 5 mM MgCl2, 100 μM GDP, 10 μM pargyline), centrifuged as before and re-suspended in buffer B. Membranes were incubated in buffer B with test compounds and 0.1 nM [^35S]GTPγS for 60 min at 37° C. The incubation was terminated by rapid filtration through Whatman GF-B fiber filters using a Brandel harvester. Radioactivity retained on the filters was measured by liquid scintillation counting. Data were analyzed using a nonlinear curve-fitting program (Prism, Graphpad Software, San Diego, Calif., USA), and are expressed as mean value±S.E.M.
It should be noted that 5-HT can activate different 5-HT receptors. Herein, only the proportion of 5-HT's effect which is 5-HT1A receptor-dependent was considered in the calculations.

[3] = test system: TBZ-treated rats (catalepsy); assay: Cross-legged position (CLP) catalepsy test, TBZ-induced catalepsy; format: in vivo, rat; conditions: TBZ 2 mg/kg i.p.
Experimental: Animals were obtained, housed and handled according to the same protocols described for Example 3. Similarly, drugs were prepared and administered according to the same protocols described for Example 3. All compounds were tested at the dose of 0.63 mg/kg.
Catalepsy induction in rats is a recognized model of Parkinsonism (Duty, S., 2011 Br J Pharmacol. 164, 1357-91). Here, catalepsy was measured using the cross-legged position test (CLP test) according to the method described by (Prinssen, E. P., et al., 1998 Eur J Pharmacol. 356, 189-92). Serotonin 5-HT1A receptor agonists were administered to rats (at least 6 per group) by oral administration (p.o.) 55 minutes before the CLP test, TBZ (2 mg/kg) was administered to rats by intraperitoneal (i.p.) route 30 min before testing. In the CLP test, the hind-limbs were placed over the ipsilateral forelimbs and the time during which an animal remained in this position was determined up to maximum of 30 seconds. The test was repeated three times (inter-trial time: 3 minutes) and the mean of the three trials was used for analysis. Animals were put back in their home cage after each set of tests.

[4] = test system: TBZ-treated rats (immobility, depression behavior); assay: Forced Swim Test, 5-HT1A receptor agonists in TBZ-treated rats; format: in vivo, rat; conditions: TBZ […] i.p.
Experimental: The experiments were performed on male Wistar rats (170-200 g) obtained from an accredited animal facility at the Jagiellonian University Medical College, Poland. The animals were housed in group of four in controlled environment (ambient temperature […]; relative humidity 55%±10%; 12-h light/dark cycles (lights on at 8:00). Standard laboratory food (LSM-B) and filtered water were freely available. Animals were assigned randomly to treatment groups. All the experiments were performed by two observers unaware of the treatment applied between 9:00 and 14:00 on separate groups of animals. All animals were used only once. All the experimental procedures complied with the European Communities Council Directive of 24 Nov. 1986 (86/609/EEC) and were in accordance with the 1996 NIH Guide for the Care and Use of Laboratory Animals.
Tetrabenazine (TBZ) was dissolved in a vehicle solution of 0.9% saline and dimethylsulfoxide (DMSO) (20%). 10-μl hydrochloric acid (HCl) was then added to achieve full solubilization of the drug. TBZ (1.5 mg/kg) was administered intraperitoneally (i.p.).
All compounds were given in a volume of 2 ml/kg. […]
The experiment was carried out according to a well-characterized method (Porsolt, R. D., et al., 1978 Eur J Pharmacol 47, 379-91). On the first day of an experiment, the animals (at least n=6 per group) were gently individually placed in Plexiglas cylinders (40 cm high, 18 cm in diameter) containing water (17 cm deep) maintained at 23-25° C. for 15 min. On removal from water, the rats were placed for 30 min in a Plexiglas box under a 60 W incandescent filament bulb to dry. On the following day (24 h later), TBZ (1.5 mg/kg) was administered to rats by intraperitoneal (i.p.) route 90 min before testing. Serotonin 5-HT1A receptor agonists were then administered to rats by oral administration (p.o.) 60 minutes before the rats were re-placed in the cylinder and the total duration of their immobility was recorded during the 5-min test period. The swimming behavior entailed active swimming motions, e.g., moving horizontally around in the cylinder, and immobility was assigned when no additional activity was observed other than that necessary to keep the rat's head above the water.

[5] = target: other 5-HT, dopaminergic, adrenergic receptors; conditions: cited from earlier work
[6] = cited from earlier work
[7] = agonist 10 μM, % of stimulation by 5-HT 10 μM (5-HT1A-dependent part)
[8] = 0.63 mg/kg p.o. ((±)8-OH-DPAT s.c.)

COc1cc2c(cc1OC)[C@@H]1CC(=O)[C@@H](CC(C)C)CN1CC2 (racemic) [TBZ, (SS,RR)-3-Isobutyl-9,10-dimethoxy-1,3,4,6,7,11b-hexahydro-pyrido[2,1-a]isoquinolin-2-one]
patients with symptoms suggestive of Parkinsonism ([1]; 12-week double-blind, placebo-controlled study, placebo 0%): 15% | patients with symptoms suggestive of Parkinsonism ([1]; 48-week open-label study): 10% | patients with symptoms suggestive of Parkinsonism ([1]; 80-week open-label study): 3%

O=C1CC2(CCCC2)CC(=O)N1CCCCN1CCN(c2ncccn2)CC1 [buspirone]
Emax [2, 7]: ~50% | effect on TBZ-induced CLP catalepsy duration ([3]; buspirone 0.63, 2.5 or 5 mg/kg): does not diminish TBZ-induced catalepsy behavior; also recorded: None of the doses of buspirone showed durations of catalepsy that differed significantly | effect on immobility duration in TBZ-treated rats ([4]; buspirone 0.63 or 2.5 mg/kg p.o.): did not reduce immobility | effect on immobility duration in TBZ-treated rats ([4]; buspirone 0.63 or 2.5 mg/kg p.o., listed as Buspirone): did not reduce immobility duration significantly

Cc1ccc(CNCC2(F)CCN(C(=O)c3ccc(F)c(Cl)c3)CC2)nc1 [befiradol, (3-Chloro-4-fluoro-phenyl)-[4-fluoro-4-{[(5-methyl-pyridin-2-ylmethyl)-amino]-methyl}piperidin-1-yl]methanone]
pKi at other 5-HT, dopaminergic, adrenergic receptors [5]: less than 6 | Emax [2]: > 90% | effect on TBZ-induced CLP catalepsy duration [3, 8]: almost no CLP catalepsy; also recorded: significantly decreased durations of immobility | effect on immobility duration in TBZ-treated rats [4, 8]: significantly decreased durations of immobility | effect on immobility duration in TBZ-treated rats ([4]; 0.63 mg/kg p.o. ((±)8-OH-DPAT s.c.), listed as Befiradol): significantly reduced immobility times

CCCN(CCC)C1CCc2cccc(O)c2C1 (racemic) [(±)8-OH-DPAT, (±)8-hydroxy-2-(di-n-propylamino)tetralin]
Emax, stimulation of [35S]GTPγS binding relative to 5-HT [2, 7]: intermediate between that of buspirone and the other compounds; also recorded: intermediate efficacy | effect on TBZ-induced CLP catalepsy duration [3, 8]: almost no CLP catalepsy; also recorded: significantly decreased durations of immobility | oral bioavailability [6]: poorly bioavailable by oral route

Cc1cnc(CNCC2(F)CCN(C(=O)c3ccc(F)c(Cl)c3)CC2)nc1 [derivative 1a, 3-chloro-4-fluorophenyl-[4-fluoro-4-[[(5-methylpyrimidin-2-ylmethyl)amino]methyl]piperidin-1-yl]methanone]
Emax [2]: > 90% | effect on TBZ-induced CLP catalepsy duration [3, 8]: almost no CLP catalepsy; also recorded: significantly decreased durations of catalepsy

NCCc1c[nH]c2ccc(O)cc12 [5-HT, 5-hydroxytryptamine]
share of 5-HT-induced [35S]GTPγS binding mediated by 5-HT1A receptors ([2]; from WAY100635 (1 μM) co-incubation): 85%
